This data set can be described thus: in vivo. The data set is classed as in vivo, mouse. Particulars: for half-life / C0 / clearance / Vd: iv, 2 mg/kg; for C0: back extrapolated; for clearance: flagged NR (not reportable, very high vs liver blood flow); for Vd: read-out: Vss. The method, then:
Total fifteen male mice were used in this study with n=3 mice/time point with sparse sampling study design. Animals were administered through intravenous route with solution formulation of 323 at 2 mg/kg dose.
The extraction procedure for plasma/brain samples and the spiked plasma/brain calibration standards were identical (PMSF Stabilized Plasma and Brain used for Preparation of calibration standards): A 20 μL of study sample plasma/brain or spiked plasma/brain calibration standard was added to individual pre-labeled micro-centrifuge tubes followed by 200 μL of internal standard prepared in acetonitrile (Rosuvastatin+Cetrizine, 50 ng/mL) was added except for blank, where 200 μL of acetonitrile was added. Samples were vortexed for 5 minutes. Samples were centrifuged for 10 minutes at a speed of 4000 rpm at 4° C. Following centrifugation, 200 μL of clear supernatant was transferred in 96 well plates and analyzed using LC-MS/MS.
Brain samples were diluted (1-part of tissue: 2-part of buffer) and homogenized. The homogenate was submitted for bioanalysis and the concentrations (ng/mL) received were corrected with dilution factor (3×) and the final reported concentrations were represented in ng/g.
The plasma and brain concentration-time data of 323 and 001 were used for the pharmacokinetic analysis.
LLOQ: 323: 1.02 ng/mL for plasma and brain 001: 1.01 ng/mL for plasma and brain

Setting [1] is: male, C57BL/6, mouse, in vivo, 323 in brain after 323 IV 2 mg/kg.
Setting [2] is: male, C57BL/6, mouse, in vivo, 323 in plasma after 323 IV 2 mg/kg.
Setting [3] is: male, C57BL/6, mouse, in vivo, 323 after 323 IV 2 mg/kg, read-out: Brain concentrations (mean).
Where [4] appears, read: male, C57BL/6, mouse, in vivo, 323 after 323 IV 2 mg/kg, read-out: Plasma concentrations (mean).

The structures appear in SMILES notation. Where two headings read alike, the source gives them in different places.

For `COc1ccc([C@@]23CCC(OP4(=O)OCC(C)(C)CO4)=C[C@@H]2N(C)CC3)cc1OC` [Compound 323, 2-[[(3aS,7aS)-3a-(3,4-dimethoxyphenyl)-1-methyl-3,4,5,7a-tetrahydro-2H-indol-6-yl]oxy]-5,5-dimethyl-1,3,2λ^5-dioxaphosphinane 2-oxide], where the note is “323 after 323 IV 2 mg/kg”, the “brain concentrations quantifiable up to” value was not above 0.5 h and the “plasma concentrations quantifiable up to” value is recorded as “up to 2 h”. For the same compound, the AUClast (323 in brain after 323 IV 2 mg/kg) was determined as 6.56 ng·h/g. Moreover, under setting [1], the half-life (as a rule, the time needed for the level to fall by half in the phase considered) is 10.8 min; the C0 is 33.9 ng/mL; the clearance (commonly the volume of plasma or blood freed of the substance per unit of time) was found to be 4350 mL/min/kg; the Vd was 61.7 L/kg. Besides, under setting [2], the half-life is 10.2 min, the C0 is 609 ng/mL, the clearance was found to be 344 mL/min/kg and the Vd stood at 3.25 L/kg. Under setting [2], the exposure AUC(0-t) (in general, exposure summed from dosing to a finite time, without extrapolation to infinity) was 96 ng·h/mL. For the same compound, under setting [3], the concentration at 0.08 h was determined as 22.1 ng/g and the concentration at 0.25 h was determined as 8.97 ng/g. Also, under setting [4], the concentration at 0.08 h turned out to be 332 ng/mL, the concentration at 0.25 h is 91.6 ng/mL and the concentration at 0.5 h is 26.3 ng/mL. In addition, the concentration at 0.5 h (male, C57BL/6, mouse, in vivo, 323 after 323 IV 2 mg/kg, average of two values, read-out: Brain concentrations (mean)) amounted to 4.43 ng/g. Also, under “male, C57BL/6, mouse, in vivo, 323 after 323 IV 2 mg/kg, 1 h, read-out: Plasma concentrations (mean)”, the concentration at 1 h worked out at 4.05 ng/mL. Also, the concentration at 2 h (male, C57BL/6, mouse, in vivo, 323 after 323 IV 2 mg/kg, 2 h, single value, excluded from data analysis, read-out: Plasma concentrations (mean)) amounted to 1.03 ng/mL. Also, the Kp (male, C57BL/6, mouse, in vivo, 323 after 323 IV 2 mg/kg, read-out: Brain-Kp) was 0.07.
